Experimental data: patent publication US6710051B1, “Screening method” (Klaus Trier APS, priority 1997, dated 2004)
Marks after values point to notes of the source that are not given here.

Experiments:
[1] = tested on: sclera; test: Content of collagen specific amino acids in rabbit sclera after long term treatment (HPLC); type: in vivo; parameters: Hydroxylysine Decr. compared to the control / Hydroxyproline Inc. compared to the control / Proline Inc. compared to the control: concentration or dose not given beside the values; details: for Hydroxylysine Decr. compared to the control / Hydroxylysine content / Hydroxyproline content / Proline content / Hydroxyproline Inc. compared to the control / Proline Inc. compared to the control: 3 months treatment; for Hydroxylysine content / Hydroxyproline content / Proline content: dried defatted weight
From the text: (§1) Test animal: Charles River Deutschland Chinchilla Bastard female rabbits.
(§2) Number of animals: 6 test animals and 6 control animals
(§3) Age: approximately 8 weeks at the commencement of the test.
(§4) Weight: 1.4-1.9 kg at the commencement of the test.
(§5) Cages: The animals live in identical cages made of stainless steel (Scanbur), length 1 m, depth 0.52 m, height 0.5 m.
(§6) Amount of food: Increasing from 75 g per day at the commencement of the test up to 130 g after three months.
(§7) Experimental drinking water 1 contained theophyllin in a dose equivalent of 27 mg increasing to 63 mg (added as theophyllin and ethylendiamin in a dose of 33 to 77 mg) daily.
(§8) Experimental drinking water 2 contained fluoxetine (Fontex, Lilly) in a dose equivalent of 2 mg increasing to 5 mg daily.
(§9) Experimental diet 3 was added 7-methylxanthine 500 mg per kg Stanrab standard diet equivalent of a daily 7-methylxanthine dose of […] per day.
(§10) Experimental diet 4 was added theobromine (3,7-dimethylxanthine) 500 mg per kg Stanrab standard diet equivalent of a daily theobromine dose of […] per day.
(§11) Experimental diet 5 was added acetazolamide 500 mg per kg Stanrab standard diet equivalent of a daily acetazolamide dose of […] per day.
(§12) Collection of sample: Sclera biopsies are taken for analysis for proteoglycane content, distribution between the individual glycosaminoglycanes and the content of collagen specific amino acids. Four tests from each animal: Two samples from the front, 5×10 mm along limbus (without cornea), and two samples from the back, punch 10 mm corresponding to the center of the retina. Furthermore, tests are taken for electron microscopy (EM) from two animals in each group.
Samples for analysis for content of collagen specific amino acids are frozen down immediately. The amino acid content is determined by HPLC-chromatography.
The dried tissue with constant weight is minced into very fine particles with a pair of scissors, approximately 20 per piece of tissue. The small flakes from each original piece of tissue ate divided into two equally sized portions, one of which is employed for hydrolysis and the other one is kept for reference. The constant dry weight of each portion is known.
From each resolubilized hydrolysate 3 aliquots of each 8 microliters and 3 aliquots of 40 μl are taken and transferred to separate polypropylene tubes in which 20 microliters of a solution of internal standard substances citrulline and 2 aminobutyric acid were added where the further method takes place.
The taken aliquots from hydrolysate are dried in a vacuum exsiccator at 35° C. over night and subsequently submitted to derivatization with phenylisothiocyanate.
The resulting phenylisothiocarbamates are transferred to the HPLC instrument for separation and quantification. A new set of calibration curves is established, 1 curve for each of the 19 amino acids, prior to the analysis of the samples from one investigation.
The concentration range of standard samples exceed the ranges of amino acid concentrations in the unknowns. Hydroxyproline and proline are quantitated from the 8 microliter aliquots, and hydroxylysine is quantitated from the 40 microliter aliquots.

[2] = tested on: sclera; test: Content of proteoglycanes in rabbit sclera after long term treatment (alcian blue method); type: in vivo; parameters: Proteoglycanes Decrease compared to the control, anterior sclera / Proteoglycanes Increase compared to the control, anterior sclera / Proteoglycanes Increase compared to the control, posterior sclera / Effect on proteoglycan content of posterior sclera in % compared to control: concentration or dose not given beside the values; details: for Content of proteoglycanes, anterior sclera / Content of proteoglycanes, posterior sclera: wet weight; for content of proteoglycans in posterior sclera (in words): Example 4, versus control; for Effect on proteoglycan content of posterior sclera in % compared to control: rabbit, Examples 2 and 4
Method: as §1, §2, §3, §4
Lightness/Darkness cycle: 12/12 hours.
as §5
Food: Stanrab standard diet from Special Diet Services, P.O. Box 705, Witham Essex CM8 3AD, UK (further details, see Table A).
as §6, §7, §8
Experimental diet 2 was added 4.5 g L-cystine per kg Stanrab standard diet equivalent of a daily L-cystine dose of 338 mg increasing to 585 mg per day. With respect to the supplement of L-cystine, the normal intake per day of the standard diet is 218 mg increasing to 377 mg L-cystine.
as §9, §10, §11
Experimental diet 6 was added 4.5 g L-ornithine per kg Stanrab standard diet equivalent of a daily L-ornithine dose of 338 mg increasing to 585 mg per day.
as §12
Analyses: Samples for proteoglycane analysis are frozen down immediately. The samples are analyzed by Wieslab AB, IDEON, S-223 70 Lund, Sweden, by means of a method which has been described by Björnsson, S., Analytical Biochemistry 210, 282-291 (1993). The method comprises extraction by 20 microliters of 4 M guanidine-HCl, 50 Mm sodium acetate per mg wet weight over night by room temperatures. The extracts are centrifuged in order to remove debris. 20 microliters of supernatant are reduced 1/10 in extraction buffer and 20 microliters of reduced supernatant are mixed with 10 microliters of reagent 1 (see Björnsson, S., Analytical biochemistry 210, 282-291 (1993)) on a shaking table for 15 minutes. 200 microliters of reagent 2 are added and the tests are incubated for 60 minutes in order to precipitate the proteoglycanes. The proteoglycane/alcian blue precipitate is transferred to 96-wells MillBlotD apparatus and washed with 2×200 microliters of 40% DMSO, 0.05 M of MgCl2. The colour intensity of the wells are quantitated by microtech E3 scanner and Scan Analysis software (Biosoft, Cambridge, U.K.). Chrondroitine-6-sulphate (Sigma C4384) is used as the calibrator. All samples are analyzed in duplicate.
The results of longterm treatment with each of the 8 substances specified above are shown in Example 2 (treatment for 12 weeks) and Example 4 (treatment for 10 weeks).

[3] = target: T1, skeletal RyR (Oryctolagus cuniculus, UniProt P11716); details: cited from earlier work; for Effect on [3H ryanodine binding in % compared to control: values of Table 3 without AMP/AMPPCP, caffeine represented by 1,7-dimethylxanthine; for Bound [3H]ryanodine % of control / Bound [3H]ryanodine pmol/mg protein / Bound [3H]ryanodine, % of control, +1 mmol/l AMPPCP / Bound [3H]ryanodine, % of control, +3 mmol/l AMP: xanthine […]; for Bound [3H]ryanodine % of control / Bound [3H]ryanodine pmol/mg protein: 1 mmol/l AMPPCP; for Bound [3H]ryanodine % of control / Bound [3H]ryanodine, % of control, +1 mmol/l AMPPCP / Bound [3H]ryanodine, % of control, +3 mmol/l AMP: control (-xanthine) = 100; for Bound [3H]ryanodine pmol/mg protein: means±SD of 3-4 experiments
T1 construct: Structure-activity Relationship of Xanthines and Skeletal Muscle Ryanodine Receptor/Ca^2+ Release Channel; from tissue; host or cells: Skeletal muscle

[4] = tested on: sclera; test: Content of collagen specific amino acids in rabbit sclera after long term treatment (HPLC); type: in vivo; details: dried defatted weight, 10 weeks treatment (Example 4)
[5] = posterior sclera, 10 weeks treatment (Example 4)

T1 sequence (P11716 whole entry): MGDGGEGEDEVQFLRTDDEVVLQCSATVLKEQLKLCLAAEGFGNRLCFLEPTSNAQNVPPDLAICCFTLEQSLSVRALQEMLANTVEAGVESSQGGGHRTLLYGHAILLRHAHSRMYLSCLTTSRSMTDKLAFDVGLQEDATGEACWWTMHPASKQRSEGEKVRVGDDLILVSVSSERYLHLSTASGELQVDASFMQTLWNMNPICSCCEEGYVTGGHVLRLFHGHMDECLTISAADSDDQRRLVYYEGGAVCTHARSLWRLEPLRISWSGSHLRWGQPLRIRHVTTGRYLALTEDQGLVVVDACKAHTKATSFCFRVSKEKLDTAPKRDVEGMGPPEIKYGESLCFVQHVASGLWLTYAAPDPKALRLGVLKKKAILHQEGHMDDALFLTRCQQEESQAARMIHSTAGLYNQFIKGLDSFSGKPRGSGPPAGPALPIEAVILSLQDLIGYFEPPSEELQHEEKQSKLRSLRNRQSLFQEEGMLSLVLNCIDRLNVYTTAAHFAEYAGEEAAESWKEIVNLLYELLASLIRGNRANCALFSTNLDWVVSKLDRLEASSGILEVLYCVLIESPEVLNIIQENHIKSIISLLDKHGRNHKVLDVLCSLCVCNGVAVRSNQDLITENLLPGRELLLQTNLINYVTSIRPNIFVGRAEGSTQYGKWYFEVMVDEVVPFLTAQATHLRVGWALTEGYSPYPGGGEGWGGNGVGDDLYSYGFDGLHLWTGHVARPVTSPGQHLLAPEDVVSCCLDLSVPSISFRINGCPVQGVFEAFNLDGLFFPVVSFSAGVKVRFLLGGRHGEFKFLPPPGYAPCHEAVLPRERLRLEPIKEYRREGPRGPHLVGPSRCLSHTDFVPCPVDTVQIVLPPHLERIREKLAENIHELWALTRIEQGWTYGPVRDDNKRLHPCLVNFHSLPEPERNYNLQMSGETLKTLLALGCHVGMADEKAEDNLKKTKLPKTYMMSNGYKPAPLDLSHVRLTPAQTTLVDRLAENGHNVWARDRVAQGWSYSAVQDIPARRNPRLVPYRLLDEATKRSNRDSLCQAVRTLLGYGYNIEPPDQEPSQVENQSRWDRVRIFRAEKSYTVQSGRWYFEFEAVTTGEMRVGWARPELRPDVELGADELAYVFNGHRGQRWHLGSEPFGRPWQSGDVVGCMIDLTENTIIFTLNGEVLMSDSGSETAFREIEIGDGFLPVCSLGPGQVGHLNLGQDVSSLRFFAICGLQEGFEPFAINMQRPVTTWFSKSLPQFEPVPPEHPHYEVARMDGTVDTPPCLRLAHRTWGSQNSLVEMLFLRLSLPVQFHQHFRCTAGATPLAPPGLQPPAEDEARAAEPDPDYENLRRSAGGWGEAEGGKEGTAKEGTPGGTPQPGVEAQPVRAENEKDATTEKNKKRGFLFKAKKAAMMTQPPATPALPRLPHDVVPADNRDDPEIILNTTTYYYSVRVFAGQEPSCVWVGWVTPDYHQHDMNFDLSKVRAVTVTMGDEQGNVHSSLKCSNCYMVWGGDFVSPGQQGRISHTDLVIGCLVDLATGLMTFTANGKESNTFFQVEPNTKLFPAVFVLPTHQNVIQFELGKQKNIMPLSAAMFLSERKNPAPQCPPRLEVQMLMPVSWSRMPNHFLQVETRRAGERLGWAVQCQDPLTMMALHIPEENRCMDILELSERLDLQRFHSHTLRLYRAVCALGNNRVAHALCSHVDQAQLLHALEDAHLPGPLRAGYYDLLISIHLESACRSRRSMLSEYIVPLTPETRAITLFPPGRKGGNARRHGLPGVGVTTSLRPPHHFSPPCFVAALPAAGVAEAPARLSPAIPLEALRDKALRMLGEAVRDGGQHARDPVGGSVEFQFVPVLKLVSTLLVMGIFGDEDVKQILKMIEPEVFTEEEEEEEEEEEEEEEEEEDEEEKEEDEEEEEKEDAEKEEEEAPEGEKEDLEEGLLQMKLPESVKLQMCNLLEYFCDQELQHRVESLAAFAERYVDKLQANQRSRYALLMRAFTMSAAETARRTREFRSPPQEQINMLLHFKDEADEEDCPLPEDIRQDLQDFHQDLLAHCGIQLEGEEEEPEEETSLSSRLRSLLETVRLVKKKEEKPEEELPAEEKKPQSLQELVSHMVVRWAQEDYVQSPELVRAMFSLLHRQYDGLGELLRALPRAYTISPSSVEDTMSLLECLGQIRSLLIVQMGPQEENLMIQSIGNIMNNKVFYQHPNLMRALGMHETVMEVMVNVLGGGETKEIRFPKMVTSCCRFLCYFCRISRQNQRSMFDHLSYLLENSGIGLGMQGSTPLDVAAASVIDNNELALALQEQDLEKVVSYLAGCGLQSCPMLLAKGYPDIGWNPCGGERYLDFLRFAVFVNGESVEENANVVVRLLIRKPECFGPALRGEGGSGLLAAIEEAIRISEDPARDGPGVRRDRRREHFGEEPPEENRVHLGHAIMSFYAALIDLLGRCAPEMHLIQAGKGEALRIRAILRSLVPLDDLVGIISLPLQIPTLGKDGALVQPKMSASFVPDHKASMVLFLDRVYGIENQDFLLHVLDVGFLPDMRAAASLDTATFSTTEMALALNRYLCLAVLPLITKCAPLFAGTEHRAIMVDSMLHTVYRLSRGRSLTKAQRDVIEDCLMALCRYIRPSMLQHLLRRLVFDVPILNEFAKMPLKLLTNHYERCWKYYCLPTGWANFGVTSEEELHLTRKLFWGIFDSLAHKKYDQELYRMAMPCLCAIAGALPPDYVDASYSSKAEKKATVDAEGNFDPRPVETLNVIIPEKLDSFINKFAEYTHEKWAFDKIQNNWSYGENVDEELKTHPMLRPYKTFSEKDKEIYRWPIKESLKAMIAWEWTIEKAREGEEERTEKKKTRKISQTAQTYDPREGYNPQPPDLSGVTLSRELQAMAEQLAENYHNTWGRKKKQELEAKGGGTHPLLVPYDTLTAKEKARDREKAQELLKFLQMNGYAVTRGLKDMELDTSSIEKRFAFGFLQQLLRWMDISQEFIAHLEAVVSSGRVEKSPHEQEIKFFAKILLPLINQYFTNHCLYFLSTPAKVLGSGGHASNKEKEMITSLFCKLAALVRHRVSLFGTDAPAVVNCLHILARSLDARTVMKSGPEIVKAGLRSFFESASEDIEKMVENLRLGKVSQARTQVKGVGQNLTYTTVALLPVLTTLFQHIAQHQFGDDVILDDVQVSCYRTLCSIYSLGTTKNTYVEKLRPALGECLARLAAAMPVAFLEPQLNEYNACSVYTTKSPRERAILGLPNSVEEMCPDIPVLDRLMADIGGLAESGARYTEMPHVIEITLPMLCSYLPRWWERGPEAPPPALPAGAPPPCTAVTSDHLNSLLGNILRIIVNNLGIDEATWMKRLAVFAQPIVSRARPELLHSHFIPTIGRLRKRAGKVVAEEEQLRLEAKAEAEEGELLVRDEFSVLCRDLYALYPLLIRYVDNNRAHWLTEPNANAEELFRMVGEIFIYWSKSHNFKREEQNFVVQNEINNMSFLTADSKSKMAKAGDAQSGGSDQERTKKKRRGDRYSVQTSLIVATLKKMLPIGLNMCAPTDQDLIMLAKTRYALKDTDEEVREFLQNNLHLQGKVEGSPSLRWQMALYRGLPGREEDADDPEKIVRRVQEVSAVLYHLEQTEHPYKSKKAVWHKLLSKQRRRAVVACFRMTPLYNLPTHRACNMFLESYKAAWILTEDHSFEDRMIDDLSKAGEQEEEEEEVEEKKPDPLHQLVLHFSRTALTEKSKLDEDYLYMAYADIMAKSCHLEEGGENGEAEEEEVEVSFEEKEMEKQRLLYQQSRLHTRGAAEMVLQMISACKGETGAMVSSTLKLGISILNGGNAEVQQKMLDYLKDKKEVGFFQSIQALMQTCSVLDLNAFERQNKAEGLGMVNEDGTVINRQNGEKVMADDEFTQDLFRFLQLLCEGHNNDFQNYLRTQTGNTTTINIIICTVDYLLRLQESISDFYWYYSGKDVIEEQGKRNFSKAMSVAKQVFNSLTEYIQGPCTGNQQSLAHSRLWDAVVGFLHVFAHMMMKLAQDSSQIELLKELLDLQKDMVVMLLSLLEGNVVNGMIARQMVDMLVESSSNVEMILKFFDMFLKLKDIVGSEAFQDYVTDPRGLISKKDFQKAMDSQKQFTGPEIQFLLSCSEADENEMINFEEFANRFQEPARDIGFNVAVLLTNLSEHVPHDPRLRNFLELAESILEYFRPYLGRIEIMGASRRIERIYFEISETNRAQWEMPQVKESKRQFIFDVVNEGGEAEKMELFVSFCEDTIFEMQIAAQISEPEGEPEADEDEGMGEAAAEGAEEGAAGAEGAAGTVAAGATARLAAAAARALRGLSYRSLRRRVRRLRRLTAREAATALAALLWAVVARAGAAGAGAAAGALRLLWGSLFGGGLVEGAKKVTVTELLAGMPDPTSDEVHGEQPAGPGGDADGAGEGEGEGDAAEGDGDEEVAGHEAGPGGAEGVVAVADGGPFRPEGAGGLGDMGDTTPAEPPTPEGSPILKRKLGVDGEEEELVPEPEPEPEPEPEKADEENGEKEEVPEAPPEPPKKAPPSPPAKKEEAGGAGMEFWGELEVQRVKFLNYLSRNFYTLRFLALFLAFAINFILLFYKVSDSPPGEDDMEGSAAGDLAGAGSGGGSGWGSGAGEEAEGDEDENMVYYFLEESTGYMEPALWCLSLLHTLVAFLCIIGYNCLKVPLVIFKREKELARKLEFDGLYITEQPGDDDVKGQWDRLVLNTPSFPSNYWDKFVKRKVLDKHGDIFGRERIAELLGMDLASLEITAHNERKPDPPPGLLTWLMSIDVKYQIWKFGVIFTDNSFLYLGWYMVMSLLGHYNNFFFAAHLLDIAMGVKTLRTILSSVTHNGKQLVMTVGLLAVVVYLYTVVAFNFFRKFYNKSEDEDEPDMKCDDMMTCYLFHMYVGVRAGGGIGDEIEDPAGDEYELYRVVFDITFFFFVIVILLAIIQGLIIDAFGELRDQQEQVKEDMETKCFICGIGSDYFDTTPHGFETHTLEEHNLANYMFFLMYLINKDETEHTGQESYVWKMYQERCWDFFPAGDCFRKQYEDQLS

Row | Structure (SMILES) | Hydroxylysine content ([1]; anterior sclera) | Hydroxyproline content ([1]; anterior sclera) | Proline content ([1]; anterior sclera) | Hydroxyproline Inc. compared to the control ([1]; posterior sclera) | Proline Inc. compared to the control ([1]; posterior sclera) | Hydroxylysine content ([1]; posterior sclera) | Hydroxyproline content ([1]; posterior sclera) | Proline content ([1]; posterior sclera) | Content of proteoglycanes, anterior sclera ([2]; 3 months treatment) | Content of proteoglycanes, posterior sclera ([2]; 3 months treatment) | Content of proteoglycanes, anterior sclera ([2]; 10 weeks treatment (Example 4)) | Content of proteoglycanes, posterior sclera ([2]; 10 weeks treatment (Example 4)) | Hydroxylysine content ([4]; anterior sclera) | Hydroxyproline content ([4]; anterior sclera) | Proline content ([4]; anterior sclera) | Hydroxylysine content ([4]; posterior sclera) | Hydroxyproline content ([4]; posterior sclera) | Proline content ([4]; posterior sclera) | also measured
1 | CNCCC(Oc1ccc(C(F)(F)F)cc1)c1ccccc1 (stereo not drawn) [Fluoxetine, fluoxetine] | 33 +/− 11 nanomol/mg tissue | 619 +/− 40 nanomol/mg tissue | 896 +/− 21 nanomol/mg tissue | 17% | 15% | 41 +/− 13 nanomol/mg tissue | 640 +/− 31 nanomol/mg tissue | 927 +/− 15 nanomol/mg tissue | 2.2 +/− 0.4* μg PG/mg tissue | 2.6 +/− 0.2 μg PG/mg tissue | – | – | – | – | – | – | – | – | Hydroxylysine Decr. compared to the control ([1]; anterior sclera): 20%; Proteoglycanes Decrease compared to the control, anterior sclera ([2]; 3 months treatment): 19%
2 | Cn1cnc2c1c(=O)[nH]c(=O)n2C [Theobromine, 3,7-Dimethylxanthine] | – | – | – | – | – | – | – | – | – | – | 2.6 +/− 0.7 μg PG/mg tissue | 2.5 +/− 0.4 μg PG/mg tissue | 49 +/− 6 nanomol/mg tissue | 751 +/− 53* nanomol/mg tissue | 1073 +/− 78* nanomol/mg tissue | 49 +/− 4* nanomol/mg tissue | 741 +/− 18* nanomol/mg tissue | 1029 +/− 45* nanomol/mg tissue | content of all collagen specific amino acids, except hydroxylysine in anterior sclera (in words) ([1]; all sclera samples, Example 4, versus control): Significant higher content; Hydroxylysine Inc. [1, 5]: 20%; Hydroxyproline Inc. [1, 5]: 19%; Proline Inc. [1, 5]: 20%; Proteoglycanes Decrease, anterior sclera ([2]; 10 weeks treatment (Example 4)): 10%; Proteoglycanes Decrease, posterior sclera ([2]; 10 weeks treatment (Example 4)): 14%; content of proteoglycans in posterior sclera (in words) [2]: decrease; Effect on proteoglycan content of posterior sclera in % compared to control [2]: 86%; Effect on [3H ryanodine binding in % compared to control [3]: 124%; Bound [3H]ryanodine % of control [3]: 160 ± 22 % of control; Bound [3H]ryanodine pmol/mg protein [3]: 2.70 ± 0.37 pmol/mg protein; Bound [3H]ryanodine, % of control, +1 mmol/l AMPPCP [3]: 160 ± 22 % of control; Bound [3H]ryanodine, % of control, +3 mmol/l AMP [3]: 136 ± 8 % of control
3 | Cn1cnc2[nH]c(=O)[nH]c(=O)c21 [7-Methylxanthine] | – | – | – | – | – | – | – | – | – | – | 2.5 +/− 0.5 μg PG/mg tissue | 3.3 +/− 0.3 μg PG/mg tissue | 45 +/− 3 nanomol/mg tissue | 667 +/− 73 nanomol/mg tissue | 951 +/− 111 nanomol/mg tissue | 44 +/− 7 nanomol/mg tissue | 719 +/− 81* nanomol/mg tissue | 1018 +/− 108* nanomol/mg tissue | content of hydroxyproline and proline in posterior sclera (in words) ([1]; Example 4, versus control): significantly higher content; Hydroxylysine Inc. [1, 5]: 7%; Hydroxyproline Inc. [1, 5]: 16%; Proline Inc. [1, 5]: 10%; Proteoglycanes Decrease, anterior sclera ([2]; 10 weeks treatment (Example 4)): 14%; Proteoglycanes Increase, posterior sclera ([2]; 10 weeks treatment (Example 4)): 14%; content of proteoglycans in posterior sclera (in words) [2]: near significant increase; Effect on proteoglycan content of posterior sclera in % compared to control [2]: 114%; Effect on [3H ryanodine binding in % compared to control [3]: 204%; Bound [3H]ryanodine % of control [3]: 225 ± 11 % of control; Bound [3H]ryanodine pmol/mg protein [3]: 3.80 ± 0.19 pmol/mg protein; Bound [3H]ryanodine, % of control, +1 mmol/l AMPPCP [3]: 225 ± 11 % of control; Bound [3H]ryanodine, % of control, +3 mmol/l AMP [3]: 214 ± 15 % of control
4 | NCCC[C@H](N)C(=O)O [L-ornithine] | – | – | – | – | – | – | – | – | – | – | 3.0 +/− 1.1 μg PG/mg tissue | 3.0 +/− 0.9 μg PG/mg tissue | 37 +/− 4 nanomol/mg tissue | 605 +/− 37 nanomol/mg tissue | 875 +/− 48 nanomol/mg tissue | 38 +/− 5 nanomol/mg tissue | 611 +/− 24 nanomol/mg tissue | 871 +/− 35 nanomol/mg tissue | Hydroxylysine Decr. [1, 5]: 7%
5 | Cn1c(=O)c2[nH]cnc2n(C)c1=O.Cn1c(=O)c2[nH]cnc2n(C)c1=O.NCCN [Teofylamin] | 28 +/− 10 nanomol/mg tissue | 653 +/− 39 nanomol/mg tissue | 958 +/− 23 nanomol/mg tissue | 18% | 11% | 28 +/− 15 nanomol/mg tissue | 643 +/− 74 nanomol/mg tissue | 902 +/− 53 nanomol/mg tissue | 2.4 +/− 0.5 μg PG/mg tissue | 2.7 +/− 0.3 μg PG/mg tissue | – | – | – | – | – | – | – | – | Hydroxylysine Decr. compared to the control ([1]; anterior sclera): 32%; Hydroxyproline Inc. compared to the control ([1]; anterior sclera): 8%; Proline Inc. compared to the control ([1]; anterior sclera): 8%; Hydroxylysine Decr. compared to the control ([1]; posterior sclera): 35%; Proteoglycanes Decrease compared to the control, anterior sclera ([2]; 3 months treatment): 11%
6 | CC(=O)Nc1nnc(S(N)(=O)=O)s1 [Acetazolamide, acetazolamide] | – | – | – | – | – | – | – | – | – | – | 2.9 +/− 0.4 μg PG/mg tissue | 2.8 +/− 0.8 μg PG/mg tissue | 41 +/− 4 nanomol/mg tissue | 596 +/− 27* nanomol/mg tissue | 843 +/− 47* nanomol/mg tissue | 38 +/− 6 nanomol/mg tissue | 563 +/− 91 nanomol/mg tissue | 781 +/− 125 nanomol/mg tissue | content of hydroxyproline and proline in anterior sclera (in words) ([1]; Example 4, versus control, significantly): reduced; Hydroxylysine Decr. [1, 5]: 7%; Hydroxyproline Decr. [1, 5]: 10%; Proline Decr. [1, 5]: 10%
7 | N[C@@H](CSSC[C@H](N)C(=O)O)C(=O)O [L-cystine] | 45 +/− 10 nanomol/mg tissue | 599 +/− 41 nanomol/mg tissue | 885 +/− 22 nanomol/mg tissue | 9% | 7% | 43 +/− 8 nanomol/mg tissue | 596 +/− 39 nanomol/mg tissue | 867 +/− 14 nanomol/mg tissue | 3.5 +/− 0.5* μg PG/mg tissue | 3.5 +/− 0.4* μg PG/mg tissue | – | – | – | – | – | – | – | – | Proteoglycanes Increase compared to the control, anterior sclera ([2]; 3 months treatment): 29%; Proteoglycanes Increase compared to the control, posterior sclera ([2]; 3 months treatment): 29%
